PMC3401280, “Moth Sex Pheromone Receptors and Deceitful Parapheromones” (PLoS ONE, 2012)
pEC50: −log10 of the molar value. Counter-ions that a name gives are not always drawn. Like-named read-outs stand apart in the source and are kept apart here. Each block holds one molecule with its values, some of them ahead of it.

Assays:
Assay type in all cases: cell-based
HvirOR13 (HR13) = target: T1, HvirOR13 (HR13) (Heliothis virescens, UniProt Q6A1K1); assay: two-electrode voltage clamp in Xenopus oocytes
T1 construct: full ORF (AJ748328) in pGEMHE, expressed in Xenopus oocytes; with HvirOrco (HR2)
T1 sequence (Q6A1K1 1-425): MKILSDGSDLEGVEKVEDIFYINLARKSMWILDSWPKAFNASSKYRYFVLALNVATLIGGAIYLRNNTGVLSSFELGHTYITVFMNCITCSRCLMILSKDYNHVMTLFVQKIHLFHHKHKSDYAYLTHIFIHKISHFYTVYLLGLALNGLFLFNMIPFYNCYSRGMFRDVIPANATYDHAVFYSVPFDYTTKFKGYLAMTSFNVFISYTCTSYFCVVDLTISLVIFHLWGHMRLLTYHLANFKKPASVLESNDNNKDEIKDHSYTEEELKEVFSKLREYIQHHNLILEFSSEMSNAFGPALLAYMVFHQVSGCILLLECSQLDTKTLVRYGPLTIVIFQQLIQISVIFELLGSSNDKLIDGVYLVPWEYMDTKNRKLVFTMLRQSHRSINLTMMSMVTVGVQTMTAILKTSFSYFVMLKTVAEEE
T1 sequence (Q8MMI4 1-472 partner): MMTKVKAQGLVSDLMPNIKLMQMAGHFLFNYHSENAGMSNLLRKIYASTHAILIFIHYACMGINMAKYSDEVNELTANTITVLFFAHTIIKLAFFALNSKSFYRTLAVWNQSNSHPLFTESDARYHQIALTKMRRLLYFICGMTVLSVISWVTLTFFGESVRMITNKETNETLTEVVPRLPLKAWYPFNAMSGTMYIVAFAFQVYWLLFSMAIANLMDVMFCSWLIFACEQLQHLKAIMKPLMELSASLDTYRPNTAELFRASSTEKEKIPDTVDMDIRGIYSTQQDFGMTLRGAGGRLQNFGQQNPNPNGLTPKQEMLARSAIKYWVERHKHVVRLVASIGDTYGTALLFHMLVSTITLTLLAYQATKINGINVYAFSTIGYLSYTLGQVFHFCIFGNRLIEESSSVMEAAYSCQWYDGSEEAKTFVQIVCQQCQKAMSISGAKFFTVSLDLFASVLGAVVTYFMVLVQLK

AtraOR1 [1] = target: T2, AtraOR1 (Amyelois transitella, UniProt J7FXC2); assay: two-electrode voltage clamp in Xenopus oocytes
T2 construct: full ORF (428 residues, JX173648) in pGEMHE, expressed in Xenopus oocytes; with AtraOrco
T2 sequence (J7FXC2 1-427): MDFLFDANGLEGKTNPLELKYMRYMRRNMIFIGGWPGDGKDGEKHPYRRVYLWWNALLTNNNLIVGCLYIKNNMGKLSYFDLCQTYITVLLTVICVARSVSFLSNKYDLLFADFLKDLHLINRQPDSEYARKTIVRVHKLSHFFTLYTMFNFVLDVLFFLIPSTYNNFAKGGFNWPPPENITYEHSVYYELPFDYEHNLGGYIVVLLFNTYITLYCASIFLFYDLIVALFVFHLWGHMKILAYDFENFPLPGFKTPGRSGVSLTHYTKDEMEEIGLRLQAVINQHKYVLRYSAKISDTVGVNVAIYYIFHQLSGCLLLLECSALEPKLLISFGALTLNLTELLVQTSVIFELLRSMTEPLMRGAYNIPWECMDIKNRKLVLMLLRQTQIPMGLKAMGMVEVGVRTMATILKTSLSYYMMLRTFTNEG
T2 sequence (J7G1V0 1-474 partner): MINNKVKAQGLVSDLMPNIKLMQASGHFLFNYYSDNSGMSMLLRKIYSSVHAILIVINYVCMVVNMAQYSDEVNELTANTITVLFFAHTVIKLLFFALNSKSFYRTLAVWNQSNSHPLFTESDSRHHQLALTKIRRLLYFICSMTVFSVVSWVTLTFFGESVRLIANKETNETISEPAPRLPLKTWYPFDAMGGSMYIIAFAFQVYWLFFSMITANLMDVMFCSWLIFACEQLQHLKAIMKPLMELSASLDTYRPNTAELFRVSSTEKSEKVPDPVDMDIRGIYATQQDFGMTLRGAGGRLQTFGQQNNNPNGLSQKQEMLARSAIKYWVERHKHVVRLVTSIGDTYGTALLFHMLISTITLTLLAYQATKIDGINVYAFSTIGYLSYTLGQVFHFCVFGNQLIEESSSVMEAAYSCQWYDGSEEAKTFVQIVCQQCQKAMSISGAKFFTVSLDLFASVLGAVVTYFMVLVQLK

AtraOR1 [2] = target: T2, AtraOR1; assay: two-electrode voltage clamp in Xenopus oocytes, screened at […]

Compound: CCCC/C=C\CCCCCCCCOC=O [Z9-14OFor, (9Z)-tetradecen-1-yl formate]
- pEC50 (HvirOR13 (HR13)): 7.48

Compound: CC/C=C\C=C/CCCCCCCCOC=O [Z9Z11-14OFor, (9Z,11Z)-tetradecadien-1-yl formate]
- pEC50 (AtraOR1 [1]): 7.05

- pEC50 (HvirOR13 (HR13); read-out: EC50): 6.82
Compound: CCCC/C=C\CCCCCCCCCC=O [Z11-16Ald, (11Z)-hexadecenal]

Compound: CC/C=C\C=C/CCCCCCCCCC=O [Z11Z13-16Ald, (11Z,13Z)-hexadecadienal]
- pEC50 (AtraOR1 [1]): 6.30

Compound: CC/C=C\C=C/CCCCCCCCCCO [Z11Z13-16OH, (11Z,13Z)-hexadecadien-1-ol]
- two-electrode voltage clamp in Xenopus oocytes, screened at 100 μM (AtraOR1 [2]): AtraOR1•AtraOrco-expressing oocytes showed moderate response to Z11Z13-16OH
